Assay results reported in patent publication US10620222B2, “Electrified compositions for determining the risk of developing adolescent idiopathic scoliosis through the use of GI protein receptor” (CHU Sainte-Justine, priority 2008, dated 2020).
“And” between values parts separate entries of the source, which are not always exact repeats. Equal values may be shown once.

Legend:
[1] = test system: Gi protein-mediated pathway in MG63 osteoblast cell line; assay type: cell-based; details: 100 ng/mL PTX 16 h, stimulation with 10 μM ligand, 37° C., 5 min
Method: The ability of CDS to detect the relative part of the Gi protein-mediated pathway in melatonin signaling was determined by blocking this pathway with pertussis toxin (PTX). This toxin ADP-ribosylates the a subunit of the heterotrimeric Gi protein and thereby prevents its activity. The MG63 osteoblast cell line was serum-starved for 16 h in the absence or presence of 100 ng/mL of PTX to inhibit the αi subunit of Gi protein. […] Cellular responses were measured with CELLKEY™ label-free cellular analysis system as described in the Material and Methods section.

[2] = test system: melatonin signaling in osteoblasts; experiment: cAMP assay in forskolin pre-treated osteoblasts; assay type: cell-based, human; details: osteoblasts from IS patients; increasing concentration of melatonin; FIG. 2
Method: Osteoblasts from patients with IS and control subjects were seeded in quadruplicate on 24-well plates (1×10^5 cells per well) and tested as previously described (Moreau A, Wang D S, Forget S et al. Melatonin Signaling Dysfunction in Adolescent Idiopathic Scoliosis. Spine 2004; 29:1772-81). All assays were performed in duplicate.
Cells were then challenged with increasing concentration of melatonin and the functional status of melatonin signaling was estimated by the ability of melatonin to reduce cAMP levels. Data were normalized with cAMP production induced by forskolin in the absence of melatonin. […] Furthermore, the extent of this production was different between the three IS patients.

[3] = test system: receptors coupled to Gi proteins expressed on osteoblasts; experiment: Cellular Dielectric Spectroscopy (CDS, CELLKEY) response to Gi-coupled receptor ligands in osteoblasts from control and AIS subjects; assay type: cell-based, human; parameters: % of control / % of control signal, Group 1, min diff. / % of control signal, Group 2, min diff. / % of control signal, Group 3, min diff.: concentration or dose not given beside the values; dZiec value / Absolute dZiec, control value of max diff. (maximal control value): unit not given here; details: for dZiec value: n1, n2 of Exper. 1-3
[4] = osteoblasts of control subjects, 300 μM ligand, from FIGS. 11A-11F

Which “inhibition extent of the CDS response by PTX treatment” value [1] does the source give for `COc1ccc2[nH]cc(CCNC(C)=O)c2c1` [Melatonin, melatonin] here?
Its value is “about 75%”.

And the “cAMP production after forskolin stimulation, IS vs healthy control osteoblasts” value [2]?
The value was “high cAMP production”.

And the “CDS response, dependence on concentration” value ([3]; osteoblasts from both control and IS patients, FIGS. 4A-4C)?
Its value is “concentration-dependent manner”.

What about the “% of control” value ([3]; osteoblasts of AIS#1020 (Group 3) relative to CTR#60) of the same compound?
The value was 52.6% and 59.8% and 63.3% and 58.1% and 58% and 59.2%.

What about the dZiec value ([3]; osteoblasts of AIS#1020 (Group 3), 300 μM ligand) of the same compound?
The dZiec value was 29.38 and 31.88 and 40.33 and 39.33 and 34.34 and 36.12.

What about the “% of control” value ([3]; osteoblasts of AIS#1198 (Group 3 in Table II) relative to CTR#69) of the same compound?
Its value is 39.3% and 42.7% and 35.6% and 27.7% and 33.3% and 34.7%.

And the dZiec value ([3]; osteoblasts of AIS#1198 (Group 3 in Table II), 300 μM ligand)?
The dZiec value was 23.94 and 31.44 and 31.91 and 25.91 and 27.41 and 29.19.

And the “% of control” value ([3]; osteoblasts of AIS#1468 (Group 3) relative to CTR#61)?
The value was 65.3% and 70% and 67.8% and 64.6% and 66.4% and 67.2%.

And the dZiec value ([3]; osteoblasts of AIS#1468 (Group 3), 300 μM ligand)?
The dZiec value was 44.92 and 46.42 and 54.79 and 49.34 and 51.12.

And the “% of control” value ([3]; osteoblasts of AIS#1474 (Group 1) relative to CTR#60)?
Its value is 29.6% and 24.4% and 23.8% and 22.4% and 29.3% and 26.4%.

And the dZiec value ([3]; osteoblasts of AIS#1474 (Group 1), 300 μM ligand)?
The dZiec value was 16.53 and 13.03 and 15.18 and 17.34 and 16.12.

What about the “% of control” value ([3]; osteoblasts of AIS#1488 (Group 1) relative to CTR#69) of the same compound?
The value was 12.9% and 15.3% and 12.2% and 11.7% and 15% and 14.4%.

What about the dZiec value ([3]; osteoblasts of AIS#1488 (Group 1), 300 μM ligand) of the same compound?
The dZiec value was 9.79 and 11.29 and 10.91 and 12.34 and 12.12.

And the “% of control” value ([3]; osteoblasts of AIS#1513 (Group 3) relative to CTR#61)?
Its value is 56.5% and 59.4% and 62.9% and 61.1% and 59.7% and 60.6%.

And the dZiec value ([3]; osteoblasts of AIS#1513 (Group 3), 300 μM ligand)?
The dZiec value was 38.90 and 39.40 and 50.81 and 51.81 and 44.34 and 46.12.

What about the “% of control” value ([3]; osteoblasts of AIS#1549 (Group 1) relative to CTR#61) of the same compound?
The value was 25.1% and 25.3% and 22.8% and 24.1% and 23.3%.

What about the dZiec value ([3]; osteoblasts of AIS#1549 (Group 1), 300 μM ligand) of the same compound?
Its dZiec value is 17.30 and 16.80 and 18.41 and 20.41 and 17.34 and 19.12.

And the “% of control” value ([3]; osteoblasts of AIS#1550 (Group 2) relative to CTR#60)?
The value was 50.7% and 57.7% and 46.2% and 47.9% and 49.5% and 51%.

What about the dZiec value ([3]; osteoblasts of AIS#1550 (Group 2), 300 μM ligand) of the same compound?
Its dZiec value is 28.28 and 30.78 and 29.43 and 32.43 and 29.34 and 31.12.

And the dZiec value ([3]; osteoblasts of control CTR#60, 300 μM ligand)?
Its dZiec value is 55.81/— and 53.31/— and 63.72/— and 67.72/— and 59.25/— and 61.03/—.

And the dZiec value ([3]; osteoblasts of control CTR#61, 300 μM ligand)?
The dZiec value was 68.79/— and 66.29/— and 80.84/— and 84.84/— and 74.30/— and 76.08/—.

What about the dZiec value ([3]; osteoblasts of control CTR#69, 300 μM ligand) of the same compound?
The dZiec value was 76.12/— and 73.62/— and 89.58/— and 93.58/— and 82.34/— and 84.12/—.

What about the “Absolute dZiec, control value of max diff. (maximal control value)” value [3, 4] of the same compound?
The value was 83.

What about the “Absolute dZiec, control value of min diff. (minimal control value)” value [3, 4] of the same compound?
Its value is 60.

What about the “Absolute dZiec, Group 1, max diff. (group value)” value ([3]; osteoblasts, AIS Group 1 value of max diff., 300 μM ligand, from FIGS. 11A-11F) of the same compound?
The value was 11.

What about the “Absolute dZiec, Group 1, min diff. (group value)” value ([3]; osteoblasts, AIS Group 1 value of min diff., 300 μM ligand, from FIGS. 11A-11F) of the same compound?
Its value is 18.

And the “% of control signal, Group 1, max diff.” value ([3]; osteoblasts, AIS Group 1 vs maximal control value)?
The value was 13%.

And the “% of control signal, Group 1, min diff.” value ([3]; osteoblasts, AIS Group 1 vs minimal control value)?
The value was 30%.

And the “Absolute dZiec, Group 2, max diff. (group value)” value ([3]; osteoblasts, AIS Group 2 value of max diff., 300 μM ligand, from FIGS. 11A-11F)?
Its value is 28.

What about the “Absolute dZiec, Group 2, min diff. (group value)” value ([3]; osteoblasts, AIS Group 2 value of min diff., 300 μM ligand, from FIGS. 11A-11F) of the same compound?
The value was 37.

And the “% of control signal, Group 2, max diff.” value ([3]; osteoblasts, AIS Group 2 vs maximal control value)?
The value was 34%.

And the “% of control signal, Group 2, min diff.” value ([3]; osteoblasts, AIS Group 2 vs minimal control value)?
Its value is 62%.

And the “Absolute dZiec, Group 3, max diff. (group value)” value ([3]; osteoblasts, AIS Group 3 value of max diff., 300 μM ligand, from FIGS. 11A-11F)?
Its value is 45.

And the “Absolute dZiec, Group 3, min diff. (group value)” value ([3]; osteoblasts, AIS Group 3 value of min diff., 300 μM ligand, from FIGS. 11A-11F)?
The value was 50.

And the “% of control signal, Group 3, max diff.” value ([3]; osteoblasts, AIS Group 3 vs maximal control value)?
The value was 54%.

And the “% of control signal, Group 3, min diff.” value ([3]; osteoblasts, AIS Group 3 vs minimal control value)?
Its value is 83%.

What about the “magnitude of CDS response in IS osteoblasts vs control” value ([3]; osteoblasts, FIGS. 4A-4C) of the same compound?
Its value is “significantly lower”.
